Values after ≈ are worked out from the molar mass of the structure shown.
Columns and labels:
[1] = tested on: Mycobacterium bovis No. 10; test: microbe, parasite or virus in culture; type: cell-based; conditions: Mycobacterium tuberculosis variant bovis, NO.10, 672 h
gram-positive bacteria = test: Biological properties of mimosamycin: activity against gram-positive bacteria; type: cell-based
gram-negative bacteria = test: Biological properties of mimosamycin: activity against gram-negative bacteria; type: cell-based; conditions: at a concentration of 50 μg/ml
fungi = test: Biological properties of mimosamycin: activity against fungi; type: cell-based; conditions: at a concentration of 50 μg/ml
acid-fast bacteria = test: Biological properties of mimosamycin: activity against acid-fast bacteria; type: cell-based
[2] = tested on: highly streptomycin-resistant strains of human tubercle bacilli; type: cell-based; conditions: compared with normal strains of tubercle bacilli
Solubility = type: physicochemical
tubercle bacilli = test: Activity of mimosamycin against tubercle bacilli (in words); type: cell-based
[3] = tested on: Mycobacterium smegmatis ATCC607; test: Antimicrobial activity of mimosamycin (Table 4); conditions: Mycolicibacterium smegmatis, ATCC607, 48 h

For `COC1=C(C)C(=O)c2cc(=O)n(C)cc2C1=O` [Mimosamycin], the MIC [1] was 6.25 µg/mL (≈ 26.8 µM), the “activity against gram-positive bacteria” value (gram-positive bacteria) was “active against gram-positive bacteria to a certain extent” and the “activity against gram-negative bacteria” value (gram-negative bacteria) was “non-effective”. The activity against fungi (fungi) was “non-effective”, the “activity against acid-fast bacteria” value (acid-fast bacteria) was “active against acid-fast bacteria” and the “activity against highly streptomycin-resistant strains of human tubercle bacilli” value [2] was “effective against highly streptomycin-resistant strains of human tubercle bacilli as is against normal strains of tubercle bacilli”. The Solubility (Solubility; in ethyl ether, n-hexane) was “Sparingly soluble”, the Solubility (Solubility; in methanol, ethanol, chloroform, esters, acetone) was “Easily soluble” and the Solubility (Solubility; in water) was “Insoluble”. For the same molecule, the “activity against tubercle bacilli” value (tubercle bacilli) was “specifically effective against tubercle bacilli” and the MIC [3] was 25 µg/mL (≈ 107 µM).

Source: patent US4127446A, “Process for producing antibiotics mimosamycin and chlorocarcins A, B and C” (priority 1975, dated 1978)
